Patent US20160136160A1, “METHOD FOR PREVENTING AND/OR TREATING CHRONIC TRAUMATIC ENCEPHALOPATHY-II” (priority 2013, published 2016)

System: tau phosphorylation
Assay: Tau phosphorylation after concussive injury in the rat (immunohistology for phosphorylated tau)
Assay type: in vivo
Conditions: rat concussion model; 1 mg/kg intravenously at 30 minutes after induction of injury; assessed at 3 day time point
Text: Note that concussive injury in the rat causes extensive tau phosphorylation (B) by 3 days after the concussive event compared to non-injured animals (A).
Having established that hyperphosphorylated tau accumulates perivascularly following concussive injury, we used an animal model of concussion to investigate whether concussion causes perivascular release of substance P. We developed a rodent model of concussion to replicate the concussive event (Donkin et al., 2004, 7th International Neurotrauma Symposium, pp 75-78, Medimond Publishers, Bologna, Italy) and subsequently determined whether substance P was released after such an event. There was a clear increase in brain perivascular substance P immunoreactivity after the concussive event (FIG. 2).
Having shown that mechanical injury causes release of substance P after concussive injury, we then investigated whether a compound of formula (I) reduces tau hyperphosphorylation after concussive injury. […] Note that concussive injury in the rat causes extensive tau phosphorylation (B) by 3 days after the concussive event compared to non-injured animals (A). […] Thus, administration of a compound of formula (I″) prevents tau hyperphosphorylation and thus prevents the development of CTE.

SMILES: Cc1ccccc1-c1cc(N2CCN(C)CC2)ncc1C(=O)N(C)Cc1cc(C(F)(F)F)cc(C(F)(F)F)c1 [formula (I″)]
- effect on tau phosphorylation after concussive injury: almost complete inhibition of tau phosphorylation
